# Reference: patent US12109214B2, “Formulation and treatment methods” (PRODRUGXTEND PTY LTD, priority 2015, dated 2024)
# How the values were obtained:
# [1] = tested on: Escherichia coli, Enterococcus faecalis and Bacteroides thetaiotamicron; test: Bacterial conversion to thioguanine nucleotides (6-TGN) in vitro; assay type: in vitro ADME; conditions: log phase cultures of all three strains, 1 mM, 120 minutes
# Method: Bacterial metabolism of 6-TG was investigated in vitro using the representative gut bacteria Escherichia coli, Enterococcus faecalis and Bacteroides thetaiotamicron. […] In contrast, generation of 6-TGN was minimal over this time period when cultures were incubated with 1 mM 6-MP.
# DSS induced colitis = test: 6-MP in DSS induced colitis over one month; assay type: in vivo, mice; conditions: large doses of 6-MP
# Source text: This discovery was particularly unexpected as these mice lack the ability to form TGNs (the active metabolites) through the conventional metabolic route in the liver and leukocytes. However, formation of the active metabolite was discovered outside the generally understood mechanism. The magnitude of the reduction in disease activity was similar to that found in wild-type mice in which colitis had been induced with DSS. […] Conversion of the related thiopurine, 6-MP, to 6-TGTP was considerably less over the same period consistent with rate-limiting IMPDH in the purine salvage pathway of bacteria.
# RaW and Winnie mice = test: Colitis in Winnie and RaW (Rag-/- x Winnie) mice; assay type: in vivo
# Source text: (§1) The vehicle control was water.
# T and B lymphocytes are not required for the occurrence of spontaneous colitis in Winnie mice. Winnie x Rag^−/− (RaW) mice are Winnie mice that lack T and B lymphocytes. RaW mice spontaneously develop a colitis phenotype with more proximal disease than Winnie [Eri, R D et al; Mucosal. Immunol. 4, 354-364 (2011)].
# [2] = tested on: Winnie mice (spontaneous colitis)
# Method: All the animal experiments were approved by the University of Queensland Animal Ethics Committee. C57B1/6 wild-type (WT) mice were purchased from the Animal Resource Authority, Western Australia and the Hprt^−/−, Winnie and RaW were bred in-house in a pathogen free animal facility. […] 6-MP (MW 170, 6-MP monohydrate, ex Sigma-Aldrich) was dissolved in water. The vehicle control was water.
# For DSS induced colitis in Hprt^−/− mice the composite disease activity index (DAI) score was used and this comprised diarrhoea, rectal bleeding and body weight percent loss subscores (0<1% loss; 1=1-5% loss; 2=5-15% loss; 3>15% loss).
# [3] = tested on: Hprt−/− mice (DSS induced colitis); test: Chronic DSS induced colitis in Hprt-/- mice
# [4] = tested on: HeLa cells expressing LC3-GFP infected with SL1344; test: Antibacterial autophagy assay; assay type: cell-based; conditions: 6-TG 50 μM
# Method: Briefly HeLa cells were plated in 12-well plates containing 18 mm glass coverslips at a density of 1×10^5 cells per well in DMEM 24 hours before infections. Cells were treated with TG or mock treated with DMSO for 16 hours prior to infection. S. enterica serovar Typhimurium SL1344 carrying a DsRed2 expression plasmid was grown overnight in Luria-Bertani broth containing 100 μg/mL carbenicillin at 37° C. with aeration and subcultured at a dilution of 1/33 for a further 3 h in Luria-Bertani carbenicillin broth. This culture was further diluted in DMEM 10% serum without antibiotics to yield a multiplicity of infection (MOI) of 100 and added to HeLa LC3-GFP cells. Infections were allowed to proceed for 20 minutes and the cells were washed once in complete medium containing 100 μg/mL gentamicin sulfate and then incubated in fresh high gentamicin medium for an additional 40 minutes. […] Slides were viewed for counting under wide-field fluorescence illumination with a 60× lens (Olympus). The fraction of LC3-GFP-positive bacteria per cell was assessed in randomly chosen fields with at least 90 cells counted for each condition. Bacteria were scored as within autophagosomes only when a complete and closely conforming LC3-GFP “capsule” was visible.
# [5] = tested on: Salmonella typhimurium (SL1344) in HeLa cells; test: Bacterial replication assay
# [6] = tested on: C57B1/6 WT mice (chronic DSS induced colitis); test: Chronic DSS-induced colitis in C57Bl/6 WT mice; assay type: in vivo
# Method: as §1
# Dextran sodium sulphate (DSS) (36-50 kDa; MP Biochemicals) was administered in the drinking water chronically [0.5% (w/v) for 4 cycles of 5 days on, followed by either 7 or 9 days off].
# [7] = tested on: Winnie mice (spontaneous colitis); test: Spontaneous colitis in Winnie mice, low dose gavage 28 days; assay type: in vivo
# Source text: as §1
# [8] = tested on: Winnie mice (spontaneous colitis); test: Spontaneous colitis in Winnie mice, daily gavage up to 14 days; assay type: in vivo
# Source text: as §1
# Both the colitis and its improvement with treatment [FIGS. 2A and 2(B)] were more marked in the distal colon (DC) of the Winnie mice.
# [9] = tested on: primary fibroblasts isolated from WT and Hprt−/− mice; test: Autophagy (LC3-II/β-actin) in primary fibroblasts; assay type: cell-based
# Method: HeLa, HCT116, HT29, HepG2 and RAW cells were obtained from ATCC and grown in DMEM supplemented with GlutaMAX (Life Technologies), 10% fetal calf serum and 20 μg/ml penicillin/streptomycin. HeLa cells stably expressing LC3-GFP have been described previously (Kabeya Y et al., The EMBO Journal, 2000, 19 (2), 5720-5728; Birmingham C L et al, J. Biol. Chem., 2006, 281 (16), […]). Primary fibroblasts isolated from WT and Hprt^−/− mice were generated from ear punch samples after dissociation with trypsin and cultured in DMEM supplemented with Glutamax and 20% fetal calf serum with antibiotics and passaged up to four times to ensure that they were axenic.
# Following treatment cells were treated with TNN (Tris-HCl, NaCl, NP40) lysis buffer. […] Following transfer to PVDF membranes (Invitrogen), detection was performed using rabbit anti-LC3 primary (Sigma), mouse anti-Actin (Sigma) and appropriate fluorescent secondary antibodies (LI-COR Biosciences) and imaged on a LICOR fluorescent imaging system.
# [10] = PC and DC of RaW mice and Winnie controls, 6-TG 2.5 mg/kg
# [11] = RaW and Winnie mice, 6-TG 2.5 mg/kg up to 14 days
# [12] = WT mice 0.5% DSS, 6-TG 0.5 mg/kg gavage 28 days
smiles,measurement,setting,value
"Sc1ncnc2nc[nH]c12 [Formulation 6-MP, 3,7-dihydropurine-6-thione]","6-TGN (6-TGMP, 6-TGDP and 6-TGTP) generation in bacterial pellets",[1],minimal
same,colitis,DSS induced colitis,no reduction in colitis
"Nc1nc2nc[nH]c2c(=S)[nH]1 [Formulation 6-TG, 2-amino-6,7-dihydro-3H-purine-6-thione]","6-TGN (6-TGMP, 6-TGDP and 6-TGTP) generation in bacterial pellets",[1],found in the bacterial pellets
same,Muc2 expression,RaW and Winnie mice; [10],increased Muc2 expression
same,"inflammation (Ifn-γ, Il-1b)",RaW and Winnie mice; [10],decreased inflammation
same,blinded histological PC and DC colitis scores,RaW and Winnie mice; [11],improved blinded histological PC and DC colitis scores
same,goblet cell morphology,RaW and Winnie mice; [11],restored goblet cell morphology
same,colitis in mid-colon or proximal colon,[2]; intra-rectal 1 mg/kg daily 14 days,no improvement
same,blinded histological scoring of the distal colon,"[2]; intra-rectal 1 mg/kg daily 14 days, P<0.01",striking improvement
same,combined diarrhea score,"[2]; intra-rectal 1 mg/kg daily, from day 11, vs 6-MP and vehicle",statistically significant improvement
same,disease activity,"[3]; Hprt−/− mice, 0.5% DSS, 6-TG 0.5 mg/kg oral gavage day 28 to 52",rapid and appreciable reduction in disease activity
same,immunosuppression,"[3]; Hprt−/− mice, 6-TG 0.5 mg/kg oral gavage",not associated with immunosuppression
same,MLN cell counts,"[3]; Hprt−/− mice, DSS, 6-TG 0.5 mg/kg",not depressed by 6-TG
same,"CD3e+CD4+, CD11b+ and CD11c+MHCII+ subset numbers in the MLN","[3]; untreated or DSS exposed Hprt−/− mice, 6-TG 0.5 mg/kg",not decreased
same,LC3 co-localization with intracellular bacteria,[4],significantly increased LC3 co-localization
same,intracellular replication of the bacteria (luminescence),"[5]; HeLa cells, 50 or 100 μM 6-TG, 12 h post infection",significantly decreased intracellular replication
same,bacterial growth (OD 600 absorbance),[5]; over the 12 h period,did not alter bacterial growth
same,"DSS colitis, total colitis scores, immune and epithelial damage subscores",[6]; [12],improved with 6-TG
same,colon weight,[6]; [12],significantly improved
same,combined diarrhoea score,[6]; [12],significantly improved
same,peripheral white blood cells,"[6]; WT mice DSS-treated and untreated, 6-TG 0.5 mg/kg gavage 28 days",decreased peripheral white blood cells
same,body weight gain,"[6]; juvenile C57B1/6 WT mice, irrespective of DSS, 6-TG 0.5 mg/kg",reduction of expected body weight gain
same,blinded histological colitis scores PC and DC,[7]; 6-TG 0.5 mg/kg/d,improved blinded histological colitis scores in both PC and DC
same,combined diarrhoea (diarrhoea and rectal bleeding) score,[7]; 6-TG 0.5 mg/kg/d or 6-MP 2.5 mg/kg/d,improved with 6-TG
same,peripheral blood leukocytes,"[7]; 6-TG 0.5 mg/kg/d or 6-MP 2.5 mg/kg/d, P=0.09",tended to reduce peripheral blood leukocytes
same,spontaneous colitis (histological colitis),[8]; 6-TG 1-2.5 mg/kg daily gavage up to 14 days,ameliorated the spontaneous colitis in a dose-dependent manner
same,pharmacodynamic effect (time to improved colonic histology),"[8]; oral and intra-rectal TG, 1 or 2.5 mg/kg/day",less than two weeks
CCC(=O)N1CCN(c2ccc(-n3c(=O)ccc4cnc5ccc(-c6cnc7ccccc7c6)cc5c43)cc2C(F)(F)F)CC1 [Torin1],autophagy induction,[9],autophagy could be induced
